# Measurements as given in US10633375B2, “Oxopicolinamide derivative, preparation method therefor and pharmaceutical use thereof” (Jiangsu Hengrui Medicine Co., Ltd., priority 2016, dated 2020).
# Target: Coagulation Factor XIa protease (Homo sapiens (Human), UniProt P03951)
# Experiment: Inhibition of Factor XIa detected by absorption photometry
# Format: biochemical
# Conditions: absorbance at 405 nm, 10 minutes at 37° C.
# Method: Test Example 1: Biological Activity of the Compounds of the Present Invention on
# The Inhibition of Factor XIa Detected by Absorption Photometry
# 1. Experimental Materials
# Enzyme: Coagulation Factor XIa protease (Abcam, Art. No ab62411)
# Substrate: Coagulation Factor XIa specific substrate (HYPHEN1310 med, Art. No. Biophen cs-21(66))
# 2. Experimental Procedure
# 20 mM of test compound dissolved in 100% DMSO was diluted to 200, 20, 2, 0.2, 0.02, 0.002 μM with 100% DMSO; 1 μl of the compound was added to each well in a 384-well plate, blank and control wells were replaced with DMSO. The plate was centrifuged to remove the compound to the bottom. 10 μl (2.5 μg/ml) of FXIa enzyme solution was added to each well, and 10 μl of buffer was added to the blank well. The plate was centrifuged to remove the enzyme solution to the bottom.
# Finally, 10 μl of 2 mM substrate were added to each well, and the plate was centrifuged to remove the substrate solution to the bottom.
# The plate was incubated for 10 minutes at 37° C.; and then the absorbance was measured at 405 nm.
# Coagulation Factor XIa protease, sequence (P03951 388-625): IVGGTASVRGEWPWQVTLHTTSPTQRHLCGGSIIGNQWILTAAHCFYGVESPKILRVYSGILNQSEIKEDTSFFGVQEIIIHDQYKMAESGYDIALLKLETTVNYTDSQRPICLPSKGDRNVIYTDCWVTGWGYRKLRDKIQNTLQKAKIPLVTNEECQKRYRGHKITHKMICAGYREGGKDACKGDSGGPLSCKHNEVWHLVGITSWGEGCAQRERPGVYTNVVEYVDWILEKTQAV
# Coagulation Factor XIa protease, sequence (P03951 19-387 partner): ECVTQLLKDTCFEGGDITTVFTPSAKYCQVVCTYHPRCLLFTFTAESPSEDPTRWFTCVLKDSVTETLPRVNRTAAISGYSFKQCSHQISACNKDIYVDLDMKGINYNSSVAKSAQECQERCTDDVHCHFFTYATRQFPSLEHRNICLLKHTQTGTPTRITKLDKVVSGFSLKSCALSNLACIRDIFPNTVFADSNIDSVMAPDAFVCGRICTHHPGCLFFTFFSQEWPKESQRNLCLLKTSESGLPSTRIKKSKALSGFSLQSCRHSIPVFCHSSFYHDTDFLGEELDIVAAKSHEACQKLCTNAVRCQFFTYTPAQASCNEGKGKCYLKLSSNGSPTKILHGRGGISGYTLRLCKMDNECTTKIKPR
row,SMILES,IC50 [µM]
1,"COc1cn(C(Cc2ccc(NC(=O)C3CC3)cc2)C(=O)Nc2ccc(C(=O)O)cc2)c(=O)cc1-c1cc(Cl)ccc1C(C)=O (centres unmarked) [Example 16, 4-(2-(4-(2-acetyl-5-chlorophenyl)-5-methoxy-2-oxopyridin-1(2H)-yl)-3-(4-(cyclopropanecarboxamido)phenyl)propanamido)benzoic acid]",0.1
2,"COc1cn(C(Cc2ccccc2)C(=O)Nc2ccc3nn(C)cc3c2)c(=O)cc1-c1cc(Cl)ccc1C(C)=O (centres unmarked) [Example 18, 2-(4-(2-acetyl-5-chlorophenyl)-5-methoxy-2-oxopyridin-1(2H)-yl)-N-(2-methyl-2H-indazol-5-yl)-3-phenylpropanamide]",0.056
3,"COc1cn([C@H](Cc2ccccc2)C(=O)Nc2ccc3nn(C)cc3c2)c(=O)cc1-c1cc(Cl)ccc1C(C)=O [Example 19, (R)-2-(4-(2-acetyl-5-chlorophenyl)-5-methoxy-2-oxopyridin-1(2H)-yl)-N-(2-methyl-2H-indazol-5-yl)-3-phenylpropanamide]",5.69
4,"CCC(=O)c1ccc(Cl)cc1-c1cc(=O)n([C@H](Cc2ccccc2)C(=O)Nc2ccc(C(N)=O)cc2)cc1OC [Example 25, (R)-4-(2-(4-(5-chloro-2-propionylphenyl)-5-methoxy-2-oxopyridin-1(2H)-yl)-3-phenylpropanamido)benzamide]",1.52
5,"CCC(=O)c1ccc(Cl)cc1-c1cc(=O)n(C(Cc2ccccc2)C(=O)Nc2ccc3cn[nH]c3c2)cc1OC (centres unmarked) [Example 27, 2-(4-(5-chloro-2-propionylphenyl)-5-methoxy-2-oxopyridin-1(2H)-yl)-N-(1H-indazol-6-yl)-3-phenylpropanamide]",0.066
6,"COc1cn(C(Cc2ccccc2)C(=O)Nc2ccc3nccnc3c2)c(=O)cc1-c1cc(Cl)ccc1C(C)=O (centres unmarked) [Example 45, 2-(4-(2-acetyl-5-chlorophenyl)-5-methoxy-2-oxopyridin-1(2H)-yl)-3-phenyl-N-(quinoxalin-6-yl)propanamide]",0.069
7,"COc1cn(C(Cc2ccccc2)C(=O)Nc2ccc3cnccc3c2)c(=O)cc1-c1cc(Cl)ccc1C(C)=O (centres unmarked) [Example 46, 2-(4-(2-acetyl-5-chlorophenyl)-5-methoxy-2-oxopyridin-1 (2H)-yl)-N-(isoquinolin-6-yl)-3-phenylpropanamide]",0.071
8,"COc1cn(C(Cc2ccccc2)C(=O)Nc2ccc3[nH]cnc3c2)c(=O)cc1-c1cc(Cl)ccc1C(C)=O (centres unmarked) [Example 47, 2-(4-(2-acetyl-5-chlorophenyl)-5-methoxy-2-oxopyridin-1 (2H)-yl)-N-(1H-benzo[d]imidazol-5-yl)-3-phenylpropanamide]",0.082
9,"COc1cn(C(Cc2ccccc2Br)C(=O)Nc2ccc(C(=O)O)cc2)c(=O)cc1-c1cc(Cl)ccc1C(C)=O (centres unmarked) [Example 64, 4-(2-(4-(2-acetyl-5-chlorophenyl)-5-methoxy-2-oxopyridin-1 (2H)-yl)-3-(2-bromophenyl)propanamido)benzoic acid]",0.058

# More lines, now with the values ahead:
row,IC50 [µM],SMILES
1,0.034,"COc1cn(C(Cc2ccsc2)C(=O)Nc2ccc(C(=O)O)cc2)c(=O)cc1-c1cc(Cl)ccc1C(C)=O (centres unmarked) [Example 7, 4-(2-(4-(2-acetyl-5-chlorophenyl)-5-methoxy-2-oxopyridin-1 (2H)-yl)-3-(thiophen-3-yl)propanamido)benzoic acid]"
2,0.042,"COC(=O)Nc1ccc(NC(=O)[C@H](Cc2ccccc2)n2cc(OC)c(-c3cc(Cl)ccc3C(C)=O)cc2=O)cc1 [Example 12, methyl (S)-(4-(2-(4-(2-acetyl-5-chlorophenyl)-5-methoxy-2-oxopyridin-1(2H)-yl)-3-phenylpropanamido)phenyl)carbamate]"
3,0.036,"CCCC(=O)c1ccc(Cl)cc1-c1cc(=O)n(C(Cc2ccccc2)C(=O)Nc2ccc(C(=O)O)cc2)cc1OC (centres unmarked) [Example 21, 4-(2-(4-(2-butyryl-5-chlorophenyl)-5-methoxy-2-oxopyridin-1 (2H)-yl)-3-phenylpropan amido)benzoic acid]"
4,0.024,"CCC(=O)c1ccc(Cl)cc1-c1cc(=O)n(C(Cc2ccccc2)C(=O)Nc2ccc3ncncc3c2)cc1OC (centres unmarked) [Example 23, 2-(4-(5-chloro-2-propionylphenyl)-5-methoxy-2-oxopyridin-1(2H)-yl)-3-phenyl-N-(quinazolin-6-yl)propanamide]"
5,0.036,"CCC(=O)c1ccc(Cl)cc1-c1cc(=O)n(C(Cc2ccccc2)C(=O)Nc2ccc(C(N)=O)cc2)cc1OC (centres unmarked) [Example 24, 4-(2-(4-(5-chloro-2-propionylphenyl)-5-methoxy-2-oxopyridin-1(2H)-yl)-3-phenylpropanamido)benzamide]"
6,0.021,"CCC(=O)c1ccc(Cl)cc1-c1cc(=O)n([C@@H](Cc2ccccc2)C(=O)Nc2ccc(C(N)=O)cc2)cc1OC [Example 26, (S)-4-(2-(4-(5-chloro-2-propionylphenyl)-5-methoxy-2-oxopyridin-1(2H)-yl)-3-phenylpropanamido)benzamide]"
7,0.03,"CCC(=O)c1ccc(Cl)cc1-c1cc(=O)n(C(Cc2ccccc2)C(=O)Nc2ccc3[nH]cnc3c2)cc1OC (centres unmarked) [Example 38, N-(1H-benzo[d]imidazol-5-yl)-2-(4-(5-chloro-2-propionylphenyl)-5-methoxy-2-oxopyridin-1(2H)-yl)-3-phenylpropanamide]"
8,0.038,"COc1cn(C(Cc2ccccc2)C(=O)Nc2ccc3ncncc3c2)c(=O)cc1-c1cc(Cl)ccc1C(C)=O (centres unmarked) [Example 40, 2-(4-(2-acetyl-5-chlorophenyl)-5-methoxy-2-oxopyridin-1(2H)-yl)-3-phenyl-N-(quinazolin-6-yl)propanamide]"
9,0.039,"COc1cn(C(Cc2ccccc2)C(=O)Nc2ccc(C(=O)O)cc2)c(=O)cc1-c1cc(Cl)ccc1C(=O)C1CC1 (centres unmarked) [Example 41, 4-(2-(4-(5-chloro-2-(cyclopropanecarbonyl)phenyl)-5-methoxy-2-oxopyridin-1(2H)-yl)-3-phenylpropanamido)benzoic acid]"
10,0.04,"COc1cn(C(Cc2ccccc2)C(=O)Nc2ccc3cn[nH]c3c2)c(=O)cc1-c1cc(Cl)ccc1C(C)=O (centres unmarked) [Example 42, 2-(4-(2-acetyl-5-chlorophenyl)-5-methoxy-2-oxopyridin-1 (2H)-yl)-N-(1H-indazol-6-yl)-3-phenylpropanamide]"
11,0.047,"COc1cn([C@@H](Cc2ccccc2)C(=O)Nc2ccc(C(=O)NC3CC3)cc2)c(=O)cc1-c1cc(Cl)ccc1C(C)=O [Example 43, (S)-4-(2-(4-(2-acetyl-5-chlorophenyl)-5-methoxy-2-oxopyridin-1 (2H)-yl)-3-phenylpropanamido)-N-cyclopropylbenzamide]"
12,0.055,"COc1cn(C(Cc2ccc(F)cc2)C(=O)Nc2ccc(C(=O)O)cc2)c(=O)cc1-c1cc(Cl)ccc1C(C)=O (centres unmarked) [Example 63, 4-(2-(4-(2-acetyl-5-chlorophenyl)-5-methoxy-2-oxopyridin-1(2H)-yl)-3-(4-fluorophenyl)propanamido)benzoic acid]"
13,0.043,"COc1cn(C(Cc2ccc(F)cc2F)C(=O)Nc2ccc(C(=O)O)cc2)c(=O)cc1-c1cc(Cl)ccc1C(C)=O (centres unmarked) [Example 65, 4-(2-(4-(2-acetyl-5-chlorophenyl)-5-methoxy-2-oxopyridin-1(2H)-yl)-3-(2,4-difluorophenyl)propanamido)benzoic acid]"
14,0.034,"COc1cn(C(Cc2ccccc2C)C(=O)Nc2ccc(C(=O)O)cc2)c(=O)cc1-c1cc(Cl)ccc1C(C)=O (centres unmarked) [Example 66, 4-(2-(4-(2-acetyl-5-chlorophenyl)-5-methoxy-2-oxopyridin-1(2H)-yl)-3-(o-tolyl)propan amido)benzoic acid]"
